This assay addresses T1, BACE1 (Homo sapiens, UniProt P56817).
T1 construct: endogenous in cells; host or cells: HEK293 APP cells
Kind of assay: Cellular Aβ-lowering assay (Abeta 40 AlphaLISA). It is filed as cell-based. The settings on record: HEK293 APP cells, 18-20 hrs incubation, Aβ 40 in culture supernatant; read-out: BACE1 cell act. Aβ40 IC50. The procedure:
Cellular Aβ-Lowering Assay:
The Abeta 40 AlphaLISA Assay can be used. The HEK293 APP cells were seeded in 96 well Microtiter plates in cell culture medium (Iscove's, plus 10% (vv) fetal bovine serum, penicillinstreptomycin) to about 80% confluency and the compounds were added at a 3× concentration in 13 volume of culture medium (final DMSO concentration was kept at 1% vv). After 18-20 hrs incubation at 37° C. and 5% CO2 in a humidified incubator, the culture supernatants were harvested for the determination of Aβ 40 concentrations using Perkin-Elmer Human Amyloid beta 1-40 (high specificity) Kit (Cat# AL275C).
Levels of Aβ 40 in the culture supernatants were calculated as percentage of maximum signal (cells treated with 1% DMSO without inhibitor). The IC50 values were calculated using the Excel XLfit software.

What is called IC50 is the concentration that gives 50% inhibition.

The structures appear in SMILES notation.

T1 sequence (P56817 46-501): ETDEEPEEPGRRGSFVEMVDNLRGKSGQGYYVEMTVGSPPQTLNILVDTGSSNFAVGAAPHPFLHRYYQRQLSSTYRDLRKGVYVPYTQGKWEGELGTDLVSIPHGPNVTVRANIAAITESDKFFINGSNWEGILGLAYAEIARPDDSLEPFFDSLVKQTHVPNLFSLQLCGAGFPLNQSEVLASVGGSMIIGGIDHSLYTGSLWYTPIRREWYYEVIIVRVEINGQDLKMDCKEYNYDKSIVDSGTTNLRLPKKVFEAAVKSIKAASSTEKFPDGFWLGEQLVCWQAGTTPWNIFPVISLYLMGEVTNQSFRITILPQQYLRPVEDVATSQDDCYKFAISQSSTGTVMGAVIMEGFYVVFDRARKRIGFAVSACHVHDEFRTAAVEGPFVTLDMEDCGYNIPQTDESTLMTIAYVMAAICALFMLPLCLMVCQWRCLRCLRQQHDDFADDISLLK

`C[C@@]1(c2cc(NC(=O)c3ccc(OC(F)(F)F)cn3)ccc2F)C[C@@H](C(F)(F)F)OC(N)=N1` [Example 16, N-(3-((4S,6S)-2-Amino-4-methyl-6-(trifluoromethyl)-5,6-dihydro-4H-1,3-oxazin-4-yl)-4-fluorophenyl)-5-(trifluoromethoxy)picolinamide]: the IC50 was determined as 1 nM.
With `C[C@@]1(c2cc(NC(=O)c3ncc(C#N)cc3Cl)ccc2F)C[C@@H](C(F)(F)F)OC(N)=N1` [Example 13, N-(3-((4S,6S)-2-Amino-4-methyl-6-(trifluoromethyl)-5,6-dihydro-4H-1,3-oxazin-4-yl)-4-fluorophenyl)-3-chloro-5-cyanopicolinamide], the IC50 stood at 13 nM.
With `C[C@@]1(c2cc(NC(=O)c3coc(CF)n3)ccc2F)C[C@@H](C(F)(F)F)OC(N)=N1` [Example 25, N-(3-((4S,6S)-2-Amino-4-methyl-6-(trifluoromethyl)-5,6-dihydro-4H-1,3-oxazin-4-yl)-4-fluorophenyl)-2-(fluoromethyl)oxazole-4-carboxamide], the IC50 came to 0.8 nM.
In the case of `COc1ccc(C(=O)Nc2ccc(F)c([C@]3(C)C[C@@H](C(F)(F)F)OC(N)=N3)c2)nc1` [Example 14, N-(3-((4S,6S)-2-Amino-4-methyl-6-(trifluoromethyl)-5,6-dihydro-4H-1,3-oxazin-4-yl)-4-fluorophenyl)-5-methoxypicolinamide] it was 2 nM; in that of `NC1=N[C@](CF)(c2cc(NC(=O)c3cnc(C(F)F)cn3)ccc2F)C[C@@H](C(F)(F)F)O1` [Example 45, N-(3-((4S,6S)-2-Amino-4-(fluoromethyl)-6-(trifluoromethyl)-5,6-dihydro-4H-1,3-oxazin-4-yl)-4-fluorophenyl)-5-(difluoromethyl)pyrazine-2-carboxamide], 39 nM.
In the case of `Cc1cnc(C(=O)Nc2ccc(F)c([C@]3(CF)C[C@@H](C(F)(F)F)OC(N)=N3)c2)cn1` [Example 42, N-(3-((4S,6S)-2-Amino-4-(fluoromethyl)-6-(trifluoromethyl)-5,6-dihydro-4H-1,3-oxazin-4-yl)-4-fluorophenyl)-5-methylpyrazine-2-carboxamide] it was 64 nM.
As to `C[C@@]1(c2cc(NC(=O)c3ccc(OC(F)F)cn3)ccc2F)C[C@@H](C(F)(F)F)OC(N)=N1` [Example 15, N-(3-((4S,6S)-2-Amino-4-methyl-6-(trifluoromethyl)-5,6-dihydro-4H-1,3-oxazin-4-yl)-4-fluorophenyl)-5-(difluoromethoxy)picolinamide], the IC50 came to 1 nM.
In the case of `NC1=N[C@](CF)(c2cc(NC(=O)c3ccc(OC(F)F)cn3)ccc2F)C[C@@H](C(F)(F)F)O1` [Example 31, N-(3-((4S,6S)-2-Amino-4-(fluoromethyl)-6-(trifluoromethyl)-5,6-dihydro-4H-1,3-oxazin-4-yl)-4-fluorophenyl)-5-(difluoromethoxy)picolinamide] it was 7 nM.
As for `NC1=N[C@](CF)(c2cc(NC(=O)c3ccc(OC(F)(F)F)cn3)ccc2F)C[C@@H](C(F)(F)F)O1` [Example 32, N-(3-((4S,6S)-2-Amino-4-(fluoromethyl)-6-(trifluoromethyl)-5,6-dihydro-4H-1,3-oxazin-4-yl)-4-fluorophenyl)-5-(trifluoromethoxy)picolinamide], the 50% inhibitory concentration (IC50) was found to be 7 nM.
In the case of `NC1=N[C@](CF)(c2cc(NC(=O)c3ccc(OCC(F)(F)F)cn3)ccc2F)C[C@@H](C(F)(F)F)O1` [Example 34, N-(3-((4S,6S)-2-Amino-4-(fluoromethyl)-6-(trifluoromethyl)-5,6-dihydro-4H-1,3-oxazin-4-yl)-4-fluorophenyl)-5-(2,2,2-trifluoroethoxy)picolinamide] it was 71 nM.
In the case of `NC1=N[C@](CF)(c2cc(NC(=O)c3ccc(C(F)F)cn3)ccc2F)C[C@@H](C(F)(F)F)O1` [Example 33, N-(3-((4S,6S)-2-Amino-4-(fluoromethyl)-6-(trifluoromethyl)-5,6-dihydro-4H-1,3-oxazin-4-yl)-4-fluorophenyl)-5-(difluoromethyl)picolinamide] it was 10 nM.

Source of the values: patent US9067926B2, “Fluoromethyl-5,6-dihydro-4H-[1,3]OXAZINES” (F. Hoffmann-La Roche AG, priority 2012, dated 2015).
